#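 Each compound was tested at five concentrations against cells in 96-well plates for 48 hours. GI50 is the concentration that inhibits growth by half. At the TGI there is no net growth.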
# What was measured:
# Experiment in all cases: growth of human tumour cells (NCI), 48 h
# [1] = system: COLO 205 colon
# [2] = system: SNB-19 CNS
# [3] = system: MDA-MB-435
# [4] = system: U251 CNS
# [5] = system: HS 578T breast
# [6] = system: T-47D breast
# [7] = system: HCC-2998 colon
# [8] = system: A498 renal
# [9] = system: NCI-H23 lung
# [10] = system: MOLT-4 leukemia
# [11] = system: KM12 colon
# [12] = system: TK-10 renal
# [13] = system: LOX IMVI melanoma
# [14] = system: HL-60(TB) leukemia
# [15] = system: UO-31 renal
# [16] = system: HOP-62 NSCLC
# [17] = system: UACC-257 melanoma
# [18] = system: UACC-62 melanoma
# [19] = system: OVCAR-8 ovarian
# [20] = system: SF-295 CNS
# [21] = system: RXF 393 renal
# [22] = system: CAKI-1 renal
# [23] = system: SW-620 colon
# [24] = system: EKVX NSCLC
# [25] = system: SK-OV-3 ovarian
# [26] = system: MCF7 breast
# [27] = system: MALME-3M melanoma
# [28] = system: OVCAR-5 ovarian
# [29] = system: M14 melanoma
# [30] = system: SF-268 CNS
# [31] = system: HCT-15 colon
# [32] = system: ACHN renal
# [33] = system: SF-539 CNS
# [34] = system: BT-549 breast
# [35] = system: SR leukemia
# [36] = system: NCI-H460 lung
# [37] = system: NCI-H226 lung
# [38] = system: SN12C renal
# [39] = system: OVCAR-3 ovarian
# [40] = system: RPMI-8226 leukemia
# [41] = system: PC-3 prostate
# [42] = system: K-562 leukemia
# [43] = system: A549 NSCLC
# [44] = system: NCI/ADR-RES ovarian
# [45] = system: HT29 colon
# [46] = system: SK-MEL-2 melanoma
# [47] = system: SNB-75 CNS
# [48] = system: HCT-116 colon
# [49] = system: 786-0 renal
# [50] = system: CCRF-CEM leukemia
# [51] = system: SK-MEL-28 melanoma
# [52] = system: OVCAR-4 ovarian
# [53] = system: NCI-H522 lung
# [54] = system: SK-MEL-5 melanoma
# [55] = system: MDA-MB-231 breast
# [56] = system: IGROV1 ovarian
# [57] = system: DU-145 prostate
smiles,measurement,setting,value
COC(=O)c1cc2cc(-c3ccc(OC)cc3)cnc2[nH]1,GI50,[1],0.774 µM
same,GI50,[2],2.27 µM
same,TGI,[2],> 64.7 µM
same,GI50,[3],0.227 µM
same,TGI,[3],0.666 µM
same,GI50,[4],0.857 µM
same,TGI,[4],16.6 µM
same,TGI,[5],> 30.3 µM
same,GI50,[6],0.726 µM
same,TGI,[6],> 100 µM
same,GI50,[7],2.34 µM
same,TGI,[7],18.9 µM
same,GI50,[8],1.63 µM
same,TGI,[8],14.3 µM
same,GI50,[9],3.33 µM
same,TGI,[9],24.1 µM
same,GI50,[10],1.06 µM
same,TGI,[10],> 100 µM
same,GI50,[11],0.418 µM
same,TGI,[11],12.9 µM
same,GI50,[12],4.26 µM
same,TGI,[12],21.8 µM
same,GI50,[13],2.19 µM
same,TGI,[13],> 100 µM
same,GI50,[14],0.767 µM
same,TGI,[14],> 28.1 µM
same,GI50,[15],4.06 µM
same,TGI,[15],24.1 µM
same,GI50,[16],2.95 µM
same,TGI,[16],21.2 µM
same,GI50,[17],7.35 µM
same,TGI,[17],> 100 µM
same,GI50,[18],1.88 µM
same,TGI,[18],> 70.1 µM
same,GI50,[19],1.52 µM
same,TGI,[19],16.4 µM
same,GI50,[20],1.32 µM
same,TGI,[20],11.4 µM
same,GI50,[21],1.85 µM
same,TGI,[21],5.96 µM
same,GI50,[22],2.28 µM
same,TGI,[22],> 38.9 µM
same,GI50,[23],0.389 µM
same,TGI,[23],> 100 µM
same,GI50,[24],5.87 µM
same,TGI,[24],> 100 µM
same,GI50,[25],2.35 µM
same,TGI,[25],12.9 µM
same,GI50,[26],0.452 µM
same,TGI,[26],> 100 µM
same,GI50,[27],2.87 µM
same,TGI,[27],37.9 µM
same,GI50,[28],11.3 µM
same,TGI,[28],73.7 µM
same,GI50,[29],0.511 µM
same,TGI,[29],7.52 µM
same,GI50,[30],2.05 µM
same,TGI,[30],27.7 µM
same,GI50,[31],0.6 µM
same,TGI,[31],> 100 µM
same,GI50,[32],7.77 µM
same,TGI,[32],57.1 µM
same,GI50,[33],1.11 µM
same,TGI,[33],3.79 µM
same,GI50,[34],1.08 µM
same,TGI,[34],> 32.2 µM
same,GI50,[35],0.286 µM
same,TGI,[35],21.1 µM
same,GI50,[36],0.565 µM
same,TGI,[36],11.6 µM
same,GI50,[37],9.15 µM
same,TGI,[37],57.3 µM
same,GI50,[38],5.73 µM
same,TGI,[38],> 51.6 µM
same,GI50,[39],0.359 µM
same,TGI,[39],1.19 µM
same,GI50,[40],1.29 µM
same,TGI,[40],> 28 µM
same,GI50,[41],1.26 µM
same,TGI,[41],15 µM
same,GI50,[42],0.427 µM
same,TGI,[42],> 100 µM
same,GI50,[43],1.13 µM
same,TGI,[43],40.3 µM
same,GI50,[44],0.36 µM
same,TGI,[44],3.41 µM
same,GI50,[45],0.399 µM
same,TGI,[45],23.4 µM
same,GI50,[46],2.76 µM
same,TGI,[46],> 67.3 µM
same,GI50,[47],1.68 µM
same,TGI,[47],21.3 µM
same,GI50,[48],0.39 µM
same,TGI,[48],11.7 µM
same,GI50,[49],1.64 µM
same,TGI,[49],14.6 µM
same,GI50,[50],2.61 µM
same,TGI,[50],> 100 µM
same,GI50,[51],6.27 µM
same,TGI,[51],> 100 µM
same,GI50,[52],3.47 µM
same,TGI,[52],> 100 µM
same,GI50,[53],0.767 µM
same,TGI,[53],5.48 µM
same,GI50,[54],0.922 µM
same,TGI,[54],15.8 µM
same,GI50,[55],4.11 µM
same,TGI,[55],31.2 µM
same,GI50,[56],0.439 µM
same,TGI,[56],2.77 µM
same,GI50,[57],2.6 µM
same,TGI,[57],16 µM
CCC(CC)COC(=O)[C@H](C)N[P@](=O)(OC[C@H]1O[C@@](C#N)(c2ccc3c(N)ncnn23)[C@H](O)[C@@H]1O)Oc1ccccc1,GI50,[1],2.46 µM
same,TGI,[1],18.4 µM
same,GI50,[2],15.7 µM
same,TGI,[2],> 100 µM
same,GI50,[3],4.53 µM
same,TGI,[3],25.1 µM
same,GI50,[4],15.9 µM
same,TGI,[4],> 100 µM
same,GI50,[5],13.2 µM
same,TGI,[5],> 100 µM
same,GI50,[6],1.82 µM
same,TGI,[6],> 100 µM
same,GI50,[7],5.39 µM
same,TGI,[7],> 100 µM
same,GI50,[8],0.359 µM
same,TGI,[8],8.57 µM
same,GI50,[9],2.59 µM
same,TGI,[9],12.1 µM
same,GI50,[10],2.79 µM
same,TGI,[10],31.2 µM
same,GI50,[11],15.3 µM
same,TGI,[11],> 100 µM
same,GI50,[12],9.85 µM
same,TGI,[12],> 100 µM
same,GI50,[13],3.58 µM
same,TGI,[13],22.1 µM
same,GI50,[14],0.701 µM
same,TGI,[14],8.62 µM
same,GI50,[15],41.3 µM
same,TGI,[15],> 100 µM
same,GI50,[16],6.34 µM
same,TGI,[16],> 100 µM
same,GI50,[17],2.73 µM
same,TGI,[17],15.7 µM
same,GI50,[18],2.56 µM
same,TGI,[18],11 µM
same,GI50,[19],5.91 µM
same,TGI,[19],> 100 µM
same,GI50,[20],31 µM
same,TGI,[20],> 100 µM
same,GI50,[21],2.8 µM
same,TGI,[21],23.3 µM
same,GI50,[22],4.19 µM
same,TGI,[22],> 100 µM
same,GI50,[23],1.92 µM
same,TGI,[23],> 100 µM
same,GI50,[24],19.1 µM
same,TGI,[24],> 100 µM
same,GI50,[25],2.65 µM
same,TGI,[25],> 100 µM
same,GI50,[26],3.45 µM
same,TGI,[26],27.3 µM
same,GI50,[27],2.08 µM
same,TGI,[27],6.91 µM
same,GI50,[28],40.2 µM
same,TGI,[28],> 100 µM
same,GI50,[29],1.95 µM
same,TGI,[29],12.2 µM
same,GI50,[30],4.29 µM
same,TGI,[30],> 100 µM
same,GI50,[31],29.1 µM
same,TGI,[31],> 100 µM
same,GI50,[32],18.3 µM
same,TGI,[32],> 100 µM
same,GI50,[33],10.8 µM
same,TGI,[33],37.3 µM
same,GI50,[34],9.62 µM
same,TGI,[34],50.7 µM
same,GI50,[35],1 µM
same,TGI,[35],32.4 µM
same,GI50,[36],4.83 µM
same,TGI,[36],> 100 µM
same,GI50,[37],7.61 µM
same,TGI,[37],49.1 µM
same,GI50,[38],7.73 µM
same,TGI,[38],> 100 µM
same,GI50,[39],2.35 µM
same,TGI,[39],18.5 µM
same,GI50,[40],1.02 µM
same,TGI,[40],10.6 µM
same,GI50,[41],3.58 µM
same,TGI,[41],14.2 µM
same,GI50,[42],0.597 µM
same,TGI,[42],> 100 µM
same,GI50,[43],47.7 µM
same,TGI,[43],> 100 µM
same,GI50,[44],> 100 µM
same,TGI,[44],> 100 µM
same,GI50,[45],6.08 µM
same,TGI,[45],> 100 µM
same,GI50,[46],0.97 µM
same,TGI,[46],4.51 µM
same,GI50,[47],2.75 µM
same,TGI,[47],91.6 µM
same,GI50,[48],2.24 µM
same,TGI,[48],30.2 µM
same,GI50,[49],6.08 µM
same,TGI,[49],> 100 µM
same,GI50,[50],3.51 µM
same,TGI,[50],51.6 µM
same,GI50,[51],2.83 µM
same,TGI,[51],11.8 µM
same,GI50,[52],3.02 µM
same,TGI,[52],66 µM
same,GI50,[53],1.29 µM
same,TGI,[53],27.3 µM
same,GI50,[54],5.24 µM
same,TGI,[54],17.5 µM
same,GI50,[55],5.46 µM
same,TGI,[55],81.3 µM
same,GI50,[56],2.72 µM
same,TGI,[56],95.2 µM
same,GI50,[57],8.44 µM
same,TGI,[57],> 100 µM
